# Key:
# [1] = test system: Models of Heart Failure due to Pressure Overload of Mice; experiment: Pharmacodynamic test in mouse models of heart failure due to pressure overload (thoracic aorta ligation); format: in vivo, C57BL/6 mice; settings: after four weeks of administration (nine weeks of modeling); for Ejection Fraction (Mean) of Ventriculus Sinister of Heart: Table 5, model group 28.6%; for Ejection Fraction (Mean) of Ventriculus Sinister of Heart / Ejection Fraction (Mean) of Heart: 5 mg/kg intraperitoneal once a day for four consecutive weeks; for effect on the cardiac contractile function (result in words): 5 mg/kg intraperitoneal once a day; for Ejection Fraction (Mean) of Heart: Table 6, model group 29.8%
# Method: 1.1 Animals healthy C57BL/6 mice
# Modeling by thoracic aorta ligation surgery: preoperative echocardiography was performed to exclude mice with abnormal cardiac functions; for mice with normal cardiac functions, anesthesia was performed, and the mice were anesthetized and then transferred into a small animal operating table and fixed; an open airway was established via endotracheal intubation, and anesthesia was maintained; taking the second rib as the center, the skin was cut along the sternum toward the first and third ribs to expose the connection between the second rib and the sternum; the second rib was cut to expose the aorta thoracic segment; the aortic arch was freed, a thin thread was inserted underneath, a thin needle was placed in parallel to the aortic arch for co-ligation; after ligation, the thin needle was withdrawn to observe the condition of the mice, and the mice were sutured layer by layer after stabilization; the mice were placed on the thermal insulation pad to keep warm, and after waking up, the mice were put back into the cage for daily feeding according to the activity.
# After five weeks of modeling, echocardiography was performed on the mice to determine the ejection fractions of the hearts of the mice. When the ejection fraction decreased by about 50%, the ejection fraction met the experimental requirements, and the administration experiment started. Animals were grouped randomly and administered according to the ultrasound data, the echocardiography was performed every two weeks until week 9 ended, and pathological section analysis was performed.
# The results were expressed using mean±standard error, data analysis was performed using GraphPad Prism statistical software, and the comparison was analyzed using a t-test. P < 0.05 was determined that there was a difference with statistical significance, otherwise P was determined that there was no significant difference.
# [2] = test system: Primary cardiomyocytes of suckling rats; experiment: Area measurement of cardiomyocytes after PE injury; format: cell-based; settings: for Cell Area Hypertrophy Multiple (Mean±Standard Deviation) Compared with Control Wells: 48 h, 10 µM; for cardiomyocyte area compared with the PE group (result in words): 10 µM compound, PE 20 µM for 48 hours
# Method: Primary cardiomyocytes of suckling rats were isolated and cultured and inoculated on a cell culture plate. A drug stock solution was taken and separately added to cell wells according to a certain dilution ratio, and a final concentration was 10 µM. After half hour of drug action, a phenylephrine (PE) stock solution was added, and a final concentration of PE was 20 µM. After 48 hours of PE action, cell samples were collected for real-time quantitative PCR assay or cell area measurement.
# Separation and plating of cardiomyocytes of rats: a certain number of SPF suckling rats were taken and placed in a clean bench according to an actual requirement for the number of cells, thoracic cavities were opened by scissors, hearts were separated, and the hearts were cut into tissue fragments with sterilized surgical scissors; Collagenase Type II (manufacturer: Sigma, article No.: C2-28-100MG) was added to a D-HANKS balanced salt buffer to prepare a […] enzyme digestion solution, and the tissue fragments of hearts were continuously digested for three times in a 37 °C constant-temperature water bath box; about 2 mL of the enzyme digestion solution was added for the first time, a supernatant was discarded after digestion, centrifugation and precipitation of cardiomyocytes and tissue fragments, about 4 mL of the enzyme digestion solution was independently added for the second time and the third time to continue digestion, a supernatant was remained each time, DMEM containing 10% FBS with the same volume as the digestion solution in the supernatant was immediately added to neutralize digestive enzymes, the supernatants for the second time and the third time were combined and centrifuged, a supernatant was discarded, an appropriate amount of DMEM containing 10% FBS was added to resuspend the cardiomyocytes, the cardiomyocytes were inoculated in a 100 mm culture plate and subjected to differential adhesion in a constant-temperature cell incubator for 2 h, and a supernatant was taken for cell count.
# Area measurement of cardiomyocytes of rats: a 24-well plate precoated with 1% gelatin was taken and plated at 1.0×10^3 cells/well, 500 µL of a 10% FBS+DMEM medium was contained in each well, and cells were cultured in a 37 °C constant-temperature cell incubator for 24 h; different compounds were independently prepared into a 100 mM mother liquor with DMSO and gradient diluted with a 10% FBS+DMEM medium to prepare a 10 µM final solution of the compound containing […]; the medium in the 24-well plate was discarded and replaced with a 500 µL/well medium containing a 10 µM compound, and three replicate wells and a negative control well were set for each compound; after 0.5 hours of drug action, PE (manufacturer: Meilun Biotechnology; article No.: MB1602) with a final concentration of 20 µM was added to each well, and no PE was added to the negative control wells; after 48 hours of PE action, at least five fields of view were randomly selected from each well under an inverted microscope (manufacturer: Nikon; model: Eclipse TS100), and the cell area data was calculated by Image J software; the area of the cells in the negative control wells was set to 1, the cell area hypertrophy multiples of the PE wells and each administration well were calculated separately, and statistical analysis was performed using the One-Way ANOVA method.
# The cardiomyocyte area was directly measured and the differences between the groups were compared for verification. The cardiomyocytes were co-intervened with PE and drugs and placed under a microscope for direct observation, and images were taken. The cell area data was calculated using Image J software. […]
# [3] = test system: myosin heavy chain β (β-MHC); settings: 48 h, 10 µM
# Method: Separation and plating of cardiomyocytes of rats: a certain number of SPF suckling rats were taken and placed in a clean bench according to an actual requirement for the number of cells, thoracic cavities were opened by scissors, hearts were separated, and the hearts were cut into tissue fragments with sterilized surgical scissors; Collagenase Type II (manufacturer: Sigma, article No.: C2-28-100MG) was added to a D-HANKS balanced salt buffer to prepare a 5 µg/mL enzyme digestion solution, and the tissue fragments of hearts were continuously digested for three times in a 37 °C constant-temperature water bath box; about 2 mL of the enzyme digestion solution was added for the first time, a supernatant was discarded after digestion, centrifugation and precipitation of cardiomyocytes and tissue fragments, about 4 mL of the enzyme digestion solution was independently added for the second time and the third time to continue digestion, a supernatant was remained each time, DMEM containing 10% FBS with the same volume as the digestion solution in the supernatant was immediately added to neutralize digestive enzymes, the supernatants for the second time and the third time were combined and centrifuged, a supernatant was discarded, an appropriate amount of DMEM containing 10% FBS was added to resuspend the cardiomyocytes, the cardiomyocytes were inoculated in a 100 mm culture plate and subjected to differential adhesion in a constant-temperature cell incubator for 2 h, and a supernatant was taken for cell count.
# A 24-well plate precoated with 1% gelatin was taken and plated at 1×10^5 cells/well, 500 µL of a 10% FBS+DMEM medium was contained in each well, and cells were cultured in a 37 °C constant-temperature cell incubator for 24 h. Different compounds were independently prepared into a 100 mM mother liquor with DMSO and gradient diluted with a 10% FBS+DMEM medium to prepare a 10 µM final solution of the compound containing 0.5% DMSO. The medium in the 24-well plate was discarded and replaced with a 500 µL/well medium containing a 10 µM compound, and three replicate wells and a negative control well were set for each compound. After 0.5 hours of drug action, PE (manufacturer: Meilun Biotechnology; article No.: MB1602) with a final concentration of 20 µM was added to each well, and no PE was added to the negative control wells; after 48 hours of PE action, sample detection was performed.
# Expression levels of genes related to cardiomyocyte hypertrophy was analyzed via real-time quantitative PCR detection of mRNA level of atrial natriuretic peptide (ANP) and myosin heavy chain β (β-MHC). The steps include extraction of total RNA of cells, reverse transcription synthesis of cDNA and real-time quantitative PCR assay.
# Based on real-time quantitative PCR detection of an mRNA level of ANP of cardiomyocytes, a drug with a potential of anti-cardiomyocyte hypertrophy was preliminarily screened and verified with an mRNA level of another hypertrophy gene β-MHC using a statistical method One-way ANOVA and statistical software GraphPad Prism.
SMILES,Ejection Fraction (Mean) of Ventriculus Sinister of Heart [1] [%],Cell Area Hypertrophy Multiple (Mean±Standard Deviation) Compared with Control Wells [2],Mean (real-time quantitative PCR validation results of cardiomyocyte β-MHC) [3],effect on the cardiac contractile function (result in words) [1],cardiomyocyte area compared with the PE group (result in words) [2],Ejection Fraction (Mean) of Heart [1] [%]
"Cc1nc2cc(-c3cc(F)ccc3O)ccc2[nH]1 [Formula I-1, 4-fluoro-2-(2-methyl-1H-benzimidazol-5-yl)phenol]",37.2,1.42±0.16,1.21,,,
"Cc1nc2cc(-c3cc(F)cc(F)c3O)ccc2[nH]1 [Formula I-2, 2,4-difluoro-6-(2-methyl-1H-benzimidazol-5-yl)phenol]",38.3,1.18±0.16,1.21,,,
"Cc1nc2cc(-c3cc(F)cc(C#N)c3O)ccc2[nH]1 [Formula I-3, 5-fluoro-2-hydroxy-3-(2-methyl-1H-benzimidazol-5-yl)benzonitrile]",37.8,1.07±0.15,1.24,,,
"Cc1nc2cc(-c3cc(C(N)=O)ccc3O)ccc2[nH]1 [Formula I-4, 4-hydroxy-3-(2-methyl-1H-benzimidazol-5-yl)benzamide]",35.4,1.27±0.34,1.15,,,
"Cc1nc2cc(-c3cc(C(N)=O)cc(F)c3O)ccc2[nH]1 [Formula I-5, 3-fluoro-4-hydroxy-5-(2-methyl-1H-benzimidazol-5-yl)benzamide]",39.7,1.50±0.15,1.25,,,
"Oc1ccc(F)cc1-c1ccc2[nH]cnc2c1 [Formula I-24, 4-fluoro-2-(1H-benzimidazol-5-yl)phenol]",40.0,1.36±0.12,,,,
"COc1ccc(F)cc1-c1ccc2[nH]cnc2c1 [Formula I-24-A, 5-(5-fluoro-2-methoxyphenyl)-1H-benzimidazole, reference compound]",29.4,1.77±0.11,,no apparent improvement effect,no apparent improvement effect,
"Cn1cnc2cc(-c3cc(F)ccc3O)ccc21 [Formula I-24-B, 4-fluoro-2-(1-methyl-1H-benzimidazol-5-yl)phenol, reference compound]",27.2,1.81±0.20,,no apparent improvement effect,no apparent improvement effect,
"Oc1ccccc1-c1cc(F)c2[nH]cnc2c1 [Formula I-24-C, 2-(7-fluoro-1H-benzimidazol-5-yl)phenol, reference compound]",30.7,1.95±0.08,,no apparent improvement effect,no apparent improvement effect,
"Cc1nc2cc(-c3cc(C(=O)O)ccc3O)ccc2[nH]1 [Formula I-48, 4-hydroxy-3-(2-methyl-1H-benzimidazol-5-yl)benzoic acid]",37.2,1.06±0.08,1.58,,,
"Cc1nc2cc(-c3cc(F)ccc3C(C)(C)O)ccc2[nH]1 [Formula II-1, 2-(4-fluoro-2-(2-methyl-1H-benzimidazol-5-yl)phenyl)propane-2-ol]",,1.39±0.30,1.32,,,38.7
"Cc1nc2cc(-c3cc(F)cc(F)c3C(C)(C)O)ccc2[nH]1 [Formula II-2, 2-(2,4-difluoro-6-(2-methyl-1H-benzimidazol-5-yl)phenyl)propane-2-ol]",,1.33±0.11,1.42,,,37.3
"Cc1nc2cc(-c3cc(F)cc(C#N)c3C(C)(C)O)ccc2[nH]1 [Formula II-3, 5-fluoro-2-(2-hydroxypropan-2-yl)-3-(2-methyl-1H-benzimidazol-5-yl)benzonitrile]",,1.28±0.10,1.28,,,40.1
"Cc1nc2cc(-c3cc(C(=O)N(C)C)ccc3C(C)(C)O)ccc2[nH]1 [Formula II-7, 4-(2-hydroxypropan-2-yl)-N,N-dimethyl-3-(2-methyl-1H-benzimidazol-5-yl)benzamide]",,1.14±0.14,1.15,,,39.6
CCCc1cc(C#N)c(C(C)(C)O)c(-c2ccc3nc[nH]c3c2)c1 [Formula II-48],,1.07±0.20,,,,41.4
"CC(O)c1ccc(F)cc1-c1ccc2[nH]cnc2c1 (stereo not drawn) [Formula II-73, 1-(4-fluoro-2-(1H-benzimidazol-5-yl)phenyl)ethane-1-ol]",,1.17±0.16,,,,40.5
"CCCc1cc(C#N)c(C(C)O)c(-c2ccc3[nH]cnc3c2)c1 (stereo not drawn) [Formula II-96, 2-(1-hydroxyethyl)-3-(1H-benzimidazol-5-yl)-5-propylbenzonitrile]",,1.49±0.10,1.38,,,36.8
"OCc1ccc(F)cc1-c1ccc2[nH]cnc2c1 [Formula II-121, (4-fluoro-2-(1H-benzimidazol-5-yl)phenyl)methanol]",,1.48±0.09,1.25,,,42.2
"CCCc1cc(C#N)c(CO)c(-c2ccc3[nH]cnc3c2)c1 [Formula II-144, 2-(hydroxymethyl)-3-(1H-benzimidazol-5-yl)-5-propylbenzonitrile]",,1.12±0.13,1.39,,,41.5

# From patent EP4585588A1, “BENZIMIDAZOLE COMPOUND, AND PREPARATION METHOD THEREFOR AND USE THEREOF” (Suzhou Pharmavan Co., Ltd., priority 2022, dated 2024)
